Read-outs that look alike come from different tables or passages of the source.
Legend:
[1] = tested on: Key Broadleaf Weed and Crop Species; experiment: Post-Emergent Test II (Table 5); assay type: in vivo; settings: post-emergence, 336 h; for pest or weed control at 70 g/ha: application rate 70 (kg ai/ha; footnote: g ai/ha); for pest or weed control at 140 g/ha: application rate 140 (kg ai/ha; footnote: g ai/ha)
Procedure, shortened: (§1)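 Visual injury ratings (0 = no injury, 100 = complete kill) were taken 14 days after treatment relative to untreated plants. Seedlings at the first or second true leaf stage received an overhead spray at 187 L/ha, and solvent-blank sprayed plants served as controls.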

[2] = tested on: Key Grass and Sedge Weeds as well as Grass Crops; experiment: Post-Emergent Test II (Table 6); assay type: in vivo; settings: post-emergence, 336 h, 14 days after application; for pest or weed control at 70 g/ha: 70 g ai/ha; for pest or weed control at 140 g/ha: 140 g ai/ha
Procedure, shortened: as §1

[3] = Abutilon theophrasti, ABUTH: velvetleaf (Abutilon theophrasti), read-out: Visual Growth Reduction (%) 14 Days After Application ABUTH
[4] = Amaranthus retroflexus, AMARE: redroot pigweed (Amaranthus retroflexus), read-out: Visual Growth Reduction (%) 14 Days After Application AMARE
[5] = Brassica napus, BRSSS: oilseed rape, canola (Brassica napus), read-out: Visual Growth Reduction (%) 14 Days After Application BRSSS
[6] = Chenopodium album, CHEAL: lambsquarters (Chenopodium album), read-out: Visual Growth Reduction (%) 14 Days After Application CHEAL
[7] = Euphorbia heterophylla, EPHHL: wild poinsettia (Euphorbia heterophylla), read-out: Visual Growth Reduction (%) 14 Days After Application EPHHL
[8] = Helianthus annuus, HELAN: sunflower (Helianthus annuus), read-out: Visual Growth Reduction (%) 14 Days After Application HELAN
[9] = Viola tricolor, VIOTR: wild pansy (Viola tricolor), read-out: Visual Growth Reduction (%) 14 Days After Application VIOTR
[10] = CYPSS, read-out: Visual Growth Reduction (%) 14 Days After Application CYPSS
[11] = DIGSA: crabgrass (Digitaria sanguinalis), read-out: Visual Growth Reduction (%) 14 Days After Application DIGSA
[12] = ECHSS, read-out: Visual Growth Reduction (%) 14 Days After Application ECHSS
[13] = ORYSS (crop), read-out: Visual Growth Reduction (%) 14 Days After Application ORYSS
[14] = SETFA: giant foxtail (Setaria faberi), read-out: Visual Growth Reduction (%) 14 Days After Application SETFA
[15] = SORVU: grain sorghum (Sorghum vulgare), read-out: Visual Growth Reduction (%) 14 Days After Application SORVU
[16] = TRZSS (crop), read-out: Visual Growth Reduction (%) 14 Days After Application TRZSS
[17] = ZEAMX: maize, corn (Zea mays), read-out: Visual Growth Reduction (%) 14 Days After Application ZEAMX

## COC(=O)c1nc(-c2ccc(Cl)c(F)c2C(F)F)cc(N)c1Cl [Compound 53, methyl 4-amino-3-chloro-6-(4-chloro-2-(difluoromethyl)-3-fluorophenyl)picolinate]
[1]; [3]
  pest or weed control at 70 g/ha: 85 to 94%
  pest or weed control at 140 g/ha: 0 to 29%
[1]; [4]
  pest or weed control at 70 g/ha: 95 to 100%
  pest or weed control at 140 g/ha: 95 to 100%
[1]; [5]
  pest or weed control at 70 g/ha: 45 to 59%
  pest or weed control at 140 g/ha: 45 to 59%
[1]; [6]
  pest or weed control at 70 g/ha: 95 to 100%
  pest or weed control at 140 g/ha: 95 to 100%
[1]; [7]
  pest or weed control at 70 g/ha: 0 to 29%
  pest or weed control at 140 g/ha: 0 to 29%
[1]; [8]
  pest or weed control at 70 g/ha: 60 to 74%
  pest or weed control at 140 g/ha: 75 to 84%
[1]; [9]
  pest or weed control at 70 g/ha: 0 to 29%
  pest or weed control at 140 g/ha: 0 to 29%
[2]; [10]
  pest or weed control at 70 g/ha: 0 to 29%
  pest or weed control at 140 g/ha: 0 to 29%
[2]; [11]
  pest or weed control at 70 g/ha: 0 to 29%
  pest or weed control at 140 g/ha: 0 to 29%
[2]; [12]
  pest or weed control at 70 g/ha: 0 to 29%
  pest or weed control at 140 g/ha: 0 to 29%
[2]; [13]
  pest or weed control at 70 g/ha: 0 to 29%
  pest or weed control at 140 g/ha: 0 to 29%
[2]; [14]
  pest or weed control at 70 g/ha: 0 to 29%
  pest or weed control at 140 g/ha: 0 to 29%
[2]; [15]
  pest or weed control at 70 g/ha: 0 to 29%
  pest or weed control at 140 g/ha: 0 to 29%
[2]; [16]
  pest or weed control at 70 g/ha: 0 to 29%
  pest or weed control at 140 g/ha: 0 to 29%
[2]; [17]
  pest or weed control at 70 g/ha: 0 to 29%
  pest or weed control at 140 g/ha: 0 to 29%

## COc1c(-c2cc(N)c(Cl)c(C(=O)O)n2)ccc(Cl)c1F [Compound 84, 4-amino-3-chloro-6-(4-chloro-3-fluoro-2-methoxyphenyl)picolinic acid]
[1]; [3]
  pest or weed control at 70 g/ha: 95 to 100%
  pest or weed control at 140 g/ha: 95 to 100%
[1]; [4]
  pest or weed control at 70 g/ha: 95 to 100%
  pest or weed control at 140 g/ha: 95 to 100%
[1]; [5]
  pest or weed control at 70 g/ha: 95 to 100%
  pest or weed control at 140 g/ha: 95 to 100%
[1]; [6]
  pest or weed control at 70 g/ha: 95 to 100%
  pest or weed control at 140 g/ha: 95 to 100%
[1]; [7]
  pest or weed control at 70 g/ha: 0 to 29%
  pest or weed control at 140 g/ha: 0 to 29%
[1]; [8]
  pest or weed control at 70 g/ha: 85 to 94%
  pest or weed control at 140 g/ha: 85 to 94%
[1]; [9]
  pest or weed control at 70 g/ha: 95 to 100%
  pest or weed control at 140 g/ha: 95 to 100%
[2]; [10]
  pest or weed control at 70 g/ha: 0 to 29%
  pest or weed control at 140 g/ha: 0 to 29%
[2]; [11]
  pest or weed control at 70 g/ha: 0 to 29%
  pest or weed control at 140 g/ha: 0 to 29%
[2]; [12]
  pest or weed control at 70 g/ha: 0 to 29%
  pest or weed control at 140 g/ha: 0 to 29%
[2]; [13]
  pest or weed control at 70 g/ha: 0 to 29%
  pest or weed control at 140 g/ha: 0 to 29%
[2]; [14]
  pest or weed control at 70 g/ha: 0 to 29%
  pest or weed control at 140 g/ha: 0 to 29%
[2]; [15]
  pest or weed control at 70 g/ha: 0 to 29%
  pest or weed control at 140 g/ha: 0 to 29%
[2]; [16]
  pest or weed control at 70 g/ha: 0 to 29%
  pest or weed control at 140 g/ha: 0 to 29%
[2]; [17]
  pest or weed control at 70 g/ha: 0 to 29%
  pest or weed control at 140 g/ha: 0 to 29%

## COC(=O)c1nc(-c2ccc(Cl)c(F)c2CO)cc(N)c1Cl [Compound 29, Methyl 4-amino-3-chloro-6-(4-chloro-3-fluoro-2-(hydroxymethyl)phenyl)picolinate]
[1]; [3]
  pest or weed control at 70 g/ha: 0 to 29%
  pest or weed control at 140 g/ha: 0 to 29%
[1]; [4]
  pest or weed control at 70 g/ha: 0 to 29%
  pest or weed control at 140 g/ha: 0 to 29%
[1]; [5]
  pest or weed control at 70 g/ha: 0 to 29%
  pest or weed control at 140 g/ha: 0 to 29%
[1]; [6]
  pest or weed control at 70 g/ha: 85 to 94%
  pest or weed control at 140 g/ha: 85 to 94%
[1]; [7]
  pest or weed control at 70 g/ha: 0 to 29%
  pest or weed control at 140 g/ha: 0 to 29%
[1]; [8]
  pest or weed control at 70 g/ha: 0 to 29%
  pest or weed control at 140 g/ha: 0 to 29%
[1]; [9]
  pest or weed control at 70 g/ha: 0 to 29%
  pest or weed control at 140 g/ha: 0 to 29%
[2]; [10]
  pest or weed control at 70 g/ha: 0 to 29%
  pest or weed control at 140 g/ha: 0 to 29%
[2]; [11]
  pest or weed control at 70 g/ha: 0 to 29%
  pest or weed control at 140 g/ha: 0 to 29%
[2]; [12]
  pest or weed control at 70 g/ha: 0 to 29%
  pest or weed control at 140 g/ha: 0 to 29%
[2]; [13]
  pest or weed control at 70 g/ha: 0 to 29%
  pest or weed control at 140 g/ha: 0 to 29%
[2]; [14]
  pest or weed control at 70 g/ha: 0 to 29%
  pest or weed control at 140 g/ha: 0 to 29%
[2]; [15]
  pest or weed control at 70 g/ha: 0 to 29%
  pest or weed control at 140 g/ha: 0 to 29%
[2]; [16]
  pest or weed control at 70 g/ha: 0 to 29%
  pest or weed control at 140 g/ha: 0 to 29%
[2]; [17]
  pest or weed control at 70 g/ha: 0 to 29%
  pest or weed control at 140 g/ha: 0 to 29%

Source: patent US10765114B2, “4-amino-6-(pyridyl and 2-substitutedphenyl)-picolinates and 6-amino-2-(pyridyl and 2-substitutedphenyl)-pyrimidine-4-carboxylates and their use as herbicides” (Dow AgroSciences LLC, priority 2013, dated 2020)
